Measured values published in ChEMBL document CHEMBL3352403, “New class of methyl tetrazole based hybrid of (Z)-5-benzylidene-2-(piperazin-1-yl)thiazol-4(%H)-one as potent antitubercular agents” (Bioorg Med Chem Lett, 2014).
In brackets after ≈: the same amount, converted by molar mass. Several values for one entry are separate records, joined by “and”; a condition that tells them apart may be missing. Equal entries are not always repeated.

Legend:
[1] = tested on: Mycobacterium tuberculosis; assay: Antitubercular activity against Mycobacterium tuberculosis H37Rv after 4 weeks; assay type: functional; conditions: 672 h
[2] = Cytotoxicity against african green monkey Vero cells after 24 hrs by MTS assay; assay type: cell-based; conditions: chlorocebus sabaeus
[3] = Cytotoxicity against mouse MBMDMphi cells after 48 hrs by MTS assay; assay type: cell-based
[4] = tested on: Mycobacterium tuberculosis; assay: Ratio of ethambutol MIC to compound MIC for Mycobacterium tuberculosis H37Rv after 4 weeks; assay type: functional

CC(C)(C)n1nnnc1C(c1ccccc1)N1CCN(C2=NC(=O)/C(=C/c3ccccc3)S2)CC1 (centres undefined)
MIC [1]: > 12.5 mg/L

CC(C)(C)n1nnnc1C(c1ccccc1F)N1CCN(C2=NC(=O)/C(=C/c3ccccc3)S2)CC1 (centres undefined)
MIC [1]: 6.25 µg/mL and 12.3 µM
CC50 at 24 h [2]: > 100 µM
CC50 at 48 h [3]: > 100 µM

CC(C)(C)n1nnnc1C(c1ccc(F)cc1)N1CCN(C2=NC(=O)/C(=C/c3ccccc3)S2)CC1 (centres undefined)
MIC [1]: 1.56 µg/mL and 3.08 µM
CC50 at 24 h [2]: > 100 µM
CC50 at 48 h [3]: > 100 µM
Ratio [4]: 3

CC(C)(C)n1nnnc1C(c1ccccc1Cl)N1CCN(C2=NC(=O)/C(=C/c3ccccc3)S2)CC1 (centres undefined)
MIC [1]: 12.5 µg/mL and 23.9 µM
CC50 at 24 h [2]: > 100 µM
CC50 at 48 h [3]: > 100 µM

CC(C)(C)n1nnnc1C(c1ccc(Cl)cc1)N1CCN(C2=NC(=O)/C(=C/c3ccccc3)S2)CC1 (centres undefined)
MIC [1]: 6.25 µg/mL and 11.9 µM
CC50 at 24 h [2]: > 100 µM
CC50 at 48 h [3]: > 100 µM

CC(C)c1ccc(C(c2nnnn2C(C)(C)C)N2CCN(C3=NC(=O)/C(=C/c4ccccc4)S3)CC2)cc1 (centres undefined)
MIC [1]: > 12.5 mg/L
CC50 at 24 h [2]: > 100 µM
CC50 at 48 h [3]: > 100 µM

COc1ccc(C(c2nnnn2C(C)(C)C)N2CCN(C3=NC(=O)/C(=C/c4ccccc4)S3)CC2)cc1 (centres undefined)
MIC [1]: 1.56 µg/mL and 3.01 µM
CC50 at 24 h [2]: > 100 µM
CC50 at 48 h [3]: > 100 µM
Ratio [4]: 3

COc1ccc(C(c2nnnn2C(C)(C)C)N2CCN(C3=NC(=O)/C(=C/c4ccccc4)S3)CC2)cc1OC (centres undefined)
MIC [1]: 6.25 µg/mL and 11.4 µM
CC50 at 24 h [2]: > 100 µM
CC50 at 48 h [3]: > 100 µM

COc1cc(C(c2nnnn2C(C)(C)C)N2CCN(C3=NC(=O)/C(=C/c4ccccc4)S3)CC2)cc(OC)c1OC (centres undefined)
MIC [1]: 6.25 µg/mL and 10.8 µM
CC50 at 24 h [2]: > 100 µM
CC50 at 48 h [3]: > 100 µM

CC(C)(C)n1nnnc1C(c1ccncc1)N1CCN(C2=NC(=O)/C(=C/c3ccccc3)S2)CC1 (centres undefined)
MIC [1]: 6.25 µg/mL and 12.8 µM

CC(C)(C)n1nnnc1C(c1cccnc1)N1CCN(C2=NC(=O)/C(=C/c3ccccc3)S2)CC1 (centres undefined)
MIC [1]: 6.25 µg/mL and 12.8 µM
CC50 at 24 h [2]: > 100 µM
CC50 at 48 h [3]: > 100 µM

CC(C)(C)n1nnnc1C(c1ccoc1)N1CCN(C2=NC(=O)/C(=C/c3ccccc3)S2)CC1 (centres undefined)
MIC [1]: 6.25 µg/mL and 13.1 µM
CC50 at 24 h [2]: > 100 µM
CC50 at 48 h [3]: 45.9 µM

O=C1N=C(N2CCN(C(c3ccccc3)c3nnnn3C3CCCCC3)CC2)S/C1=C\c1ccccc1 (centres undefined)
MIC [1]: 6.25 µg/mL and 12.1 µM
CC50 at 24 h [2]: > 100 µM
CC50 at 48 h [3]: > 100 µM

O=C1N=C(N2CCN(C(c3ccccc3F)c3nnnn3C3CCCCC3)CC2)S/C1=C\c1ccccc1 (centres undefined)
MIC [1]: 12.5 mg/L (≈ 23.5 µM)

O=C1N=C(N2CCN(C(c3ccc(F)cc3)c3nnnn3C3CCCCC3)CC2)S/C1=C\c1ccccc1 (centres undefined)
MIC [1]: 6.25 µg/mL and 11.7 µM
CC50 at 24 h [2]: > 100 µM
CC50 at 48 h [3]: > 100 µM

O=C1N=C(N2CCN(C(c3ccccc3Cl)c3nnnn3C3CCCCC3)CC2)S/C1=C\c1ccccc1 (centres undefined)
MIC [1]: 6.25 µg/mL and 11.4 µM
CC50 at 24 h [2]: > 100 µM
CC50 at 48 h [3]: > 100 µM

O=C1N=C(N2CCN(C(c3ccc(Cl)cc3)c3nnnn3C3CCCCC3)CC2)S/C1=C\c1ccccc1 (centres undefined)
MIC [1]: 12.5 µg/mL and 22.8 µM

CC(C)c1ccc(C(c2nnnn2C2CCCCC2)N2CCN(C3=NC(=O)/C(=C/c4ccccc4)S3)CC2)cc1 (centres undefined)
MIC [1]: 6.25 µg/mL and 11.2 µM
CC50 at 24 h [2]: > 100 µM
CC50 at 48 h [3]: > 100 µM

COc1ccc(C(c2nnnn2C2CCCCC2)N2CCN(C3=NC(=O)/C(=C/c4ccccc4)S3)CC2)cc1 (centres undefined)
MIC [1]: 6.25 µg/mL and 11.5 µM

COc1ccc(C(c2nnnn2C2CCCCC2)N2CCN(C3=NC(=O)/C(=C/c4ccccc4)S3)CC2)cc1OC (centres undefined)
MIC [1]: 6.25 µg/mL and 10.9 µM

COc1cc(C(c2nnnn2C2CCCCC2)N2CCN(C3=NC(=O)/C(=C/c4ccccc4)S3)CC2)cc(OC)c1OC (centres undefined)
MIC [1]: 6.25 µg/mL and 10.3 µM
CC50 at 24 h [2]: > 100 µM
CC50 at 48 h [3]: > 100 µM

O=C1N=C(N2CCN(C(c3ccncc3)c3nnnn3C3CCCCC3)CC2)S/C1=C\c1ccccc1 (centres undefined)
MIC [1]: 6.25 µg/mL and 12.1 µM

O=C1N=C(N2CCN(C(c3cccnc3)c3nnnn3C3CCCCC3)CC2)S/C1=C\c1ccccc1 (centres undefined)
MIC [1]: 6.25 µg/mL and 12.1 µM

O=C1N=C(N2CCN(C(c3ccoc3)c3nnnn3C3CCCCC3)CC2)S/C1=C\c1ccccc1 (centres undefined)
MIC [1]: 6.25 µg/mL and 12.4 µM

CC[C@@H](CO)NCCN[C@@H](CC)CO [ETHAMBUTOL]
MIC [1]: 2 µg/mL and 9.78 µM

NNC(=O)c1ccncc1 [ISONIAZID]
MIC [1]: 0.02 µg/mL and 0.14 µM

NC(=O)c1cnccn1 [PYRAZINAMIDE]
MIC [1]: 12.5 µg/mL and 102 µM
